Laboratory results: ChEMBL document CHEMBL5154760, “Metabolism guided optimization of peptidomimetics as non-covalent proteasome inhibitors for cancer treatment” (Eur J Med Chem, 2022)
The source made the active and inactive calls. No cut-off for these calls is given here.

Assays:
20S proteasome = assay: Inhibition of chymotrypsin-like activity of human 20S proteasome using Suc-Leu Leu-Val-Tyr-AMC as substrate preincubated for 15 mins followed by substrate addition measured by fluorescence assay; assay type: protein-complex assay
[1] = Stability of the compound in mouse blood assessed as half-life measured by LC-MS/MS analysis; assay type: ADME, tissue-based
MM1.S = assay: Antiproliferative activity against human MM1.S cells after 72 hrs by MTS assay; assay type: functional, cell-based
MV4-11 = assay: Antiproliferative activity against human MV4-11 cells after 72 hrs by MTS assay; assay type: functional, cell-based; conditions: MV4-11, 72 h
RPMI-8226 = assay: Antiproliferative activity against human RPMI-8226 cells after 72 hrs by MTS assay; assay type: functional, cell-based; conditions: RPMI-8226, 72 h
[2] = target: 20S proteasome (Homo sapiens) (UniProt P49721+P20618+P28074+P28062+P28065+P28072+P25786+P25787+P25788+P25789+P28066+P60900+O14818+Q8TAA3+P40306+A5LHX3+P49720+P28070+Q99436); assay: Inhibition of chymotrypsin-like activity of 20S proteasome in human MM1.S cells assessed as accumulation of polyubiquitinated proteins at 10 to 1000 nM and measured by Western blot analysis; assay type: cell-based; conditions: dose 10-1000 nM
[3] = In vivo inhibition of chymotrypsin-like activity of 20S proteasome in ICR mouse at 5 mg/kg, iv; assay type: functional

IC50 (20S proteasome) | IC50 (MM1.S) | IC50 (MV4-11) | IC50 (RPMI-8226) | SMILES | also measured
1740 nM |  |  |  | CN(Cc1ccccc1Cl)C(=O)[C@H](CCc1ccccc1)NC(=O)[C@H](CC(=O)NCC(C)(C)C)NC(=O)N1CCC(C(=O)Nc2cccnc2)CC1 | 
0.92 nM |  |  |  | CC(C)(C)CNC(=O)C[C@H](NC(=O)N1CCC(C(=O)Nc2nccs2)CC1)C(=O)N[C@@H](CCc1ccccc1)C(=O)NCc1ccccc1Cl | half-life [1]: 0.613 h
4480 nM |  |  |  | CC(C)(C)CNC(=O)C[C@H](NC(=O)N1CCC(C(=O)Nc2cccnc2)CC1)C(=O)N[C@@H](CCc1ccccc1)C(=O)N[C@H]1CCCc2ccccc21 | 
> 10000 nM |  |  |  | C[C@@H](c1ccccc1)N(C)C(=O)[C@H](CCc1ccccc1)NC(=O)[C@H](CC(=O)NCC(C)(C)C)NC(=O)N1CCC(C(=O)Nc2cccnc2)CC1 | 
8.09 nM | 12.4 nM | 4.93 nM | 24 nM | CC(C)(C)CNC(=O)C[C@H](NC(=O)N1CCC(C(=O)N2CCCc3ccccc32)CC1)C(=O)N[C@@H](CCc1ccccc1)C(=O)N[C@@H]1CCCc2ccccc21 | 
25 nM |  |  |  | COc1ccc(N(C)C(=O)C2CCN(C(=O)N[C@@H](CC(=O)NCC(C)(C)C)C(=O)N[C@@H](CCc3ccccc3)C(=O)N[C@@H]3CCCc4ccccc43)CC2)cc1 | 
> 10000 nM |  |  |  | C[C@@H](c1ccccc1)N(C)C(=O)[C@H](CCc1ccccc1)NC(=O)[C@H](CC(=O)NCC(C)(C)C)NC(=O)N1CCC(C(=O)N(C)c2cccnc2)CC1 | 
> 10000 nM |  |  |  | C[C@H](NC(=O)[C@H](CCc1ccccc1)NC(=O)[C@H](CC(=O)NCC(C)(C)C)NC(=O)N1CCC(C(=O)Nc2cccnc2)CC1)c1ccccc1 | 
> 10000 nM |  |  |  | CN(C(=O)C1CCN(C(=O)N[C@@H](CC(=O)NCC(C)(C)C)C(=O)N[C@@H](CCc2ccccc2)C(=O)N2CCc3ccccc3C2)CC1)c1cccnc1 | 
> 10000 nM |  |  |  | C[C@H](c1ccccc1)N(C)C(=O)[C@H](CCc1ccccc1)NC(=O)[C@H](CC(=O)NCC(C)(C)C)NC(=O)N1CCC(C(=O)N(C)c2cccnc2)CC1 | 
> 10000 nM |  |  |  | CC(C)(C)CNC(=O)C[C@H](NC(=O)N1CCC(C(=O)Nc2cnccn2)CC1)C(=O)N[C@@H](CCc1ccccc1)C(=O)N1CCc2ccccc2C1 | 
8.92 nM | 20.6 nM | 4.85 nM | 33.7 nM | CN(C(=O)C1CCN(C(=O)N[C@@H](CC(=O)NCC(C)(C)C)C(=O)N[C@@H](CCc2ccccc2)C(=O)N[C@@H]2CCCc3ccccc32)CC1)c1ccccn1 | 
4.03 nM | 35.1 nM | 6.83 nM | 40.7 nM | CC(C)(C)CNC(=O)C[C@H](NC(=O)N1CCC(C(=O)Nc2cccnc2)CC1)C(=O)N[C@@H](CCc1ccccc1)C(=O)N[C@@H]1CCCc2ccccc21 | 
 | 9.15 nM | 0.983 nM | 6.35 nM | CC(C)C[C@H](NC(=O)[C@H](CCc1ccccc1)NC(=O)CN1CCOCC1)C(=O)N[C@@H](Cc1ccccc1)C(=O)N[C@@H](CC(C)C)C(=O)[C@]1(C)CO1 | 
20.3 nM |  |  |  | C[C@@H](NC(=O)[C@H](CCc1ccccc1)NC(=O)[C@H](CC(=O)NCC(C)(C)C)NC(=O)N1CCC(C(=O)Nc2cccnc2)CC1)c1ccccc1 | 
6.95 nM | 26.9 nM | 4.06 nM | 20.8 nM | CN(C(=O)C1CCN(C(=O)N[C@@H](CC(=O)NCC(C)(C)C)C(=O)N[C@@H](CCc2ccccc2)C(=O)N[C@@H]2CCCc3ccccc32)CC1)c1ccc(Cl)cc1 | 
7.24 nM | 16.9 nM | 4.6 nM | 19.9 nM | CC(C)(C)CNC(=O)C[C@H](NC(=O)N1CCC(C(=O)N2CCc3ccccc32)CC1)C(=O)N[C@@H](CCc1ccccc1)C(=O)N[C@@H]1CCCc2ccccc21 | 

IC50 (20S proteasome) | IC50 (MM1.S) | IC50 (MV4-11) | IC50 (RPMI-8226) | SMILES | also measured
25 nM |  |  |  | CC(C)(C)CNC(=O)C[C@H](NC(=O)N1CCN(C(=O)c2cccnc2)CC1)C(=O)N[C@@H](CCc1ccccc1)C(=O)N[C@@H]1CCCc2ccccc21 | 
22.6 nM |  |  |  | CN(C(=O)C1CCN(C(=O)N[C@@H](CC(=O)NCC(C)(C)C)C(=O)N[C@@H](CCc2ccccc2)C(=O)N[C@@H]2CCCc3ccccc32)CC1)c1cccc(Cl)c1 | 
5.15 nM | 33.5 nM | 7.65 nM | 60.4 nM | CN(C(=O)c1cccnc1)C1CCN(C(=O)N[C@@H](CC(=O)NCC(C)(C)C)C(=O)N[C@@H](CCc2ccccc2)C(=O)N[C@@H]2CCCc3ccccc32)CC1 | 
9.38 nM | 17.7 nM | 4.87 nM | 26.2 nM | CN(C(=O)C1CCN(C(=O)N[C@@H](CC(=O)NCC(C)(C)C)C(=O)N[C@@H](CCc2ccccc2)C(=O)N[C@@H]2CCCc3ccccc32)CC1)c1ccc(F)cc1 | 
> 10000 nM |  |  |  | CN(Cc1ccccc1Cl)C(=O)[C@H](CCc1ccccc1)NC(=O)[C@H](CC(=O)NCC(C)(C)C)NC(=O)N1CCC(C(=O)N(C)c2cccnc2)CC1 | 
8.39 nM | 9.07 nM | 2.46 nM | 15.3 nM | CCN(C(=O)C1CCN(C(=O)N[C@@H](CC(=O)NCC(C)(C)C)C(=O)N[C@@H](CCc2ccccc2)C(=O)N[C@@H]2CCCc3ccccc32)CC1)c1ccccc1 | half-life [1]: 5.49 h; inhibition [2]: Active; inhibition in vivo at 5 mg/kg [3]: 50%
23.7 nM |  |  |  | CC(C)(C)CNC(=O)C[C@H](NC(=O)N1CCN(C(=O)Nc2ccc(Cl)cc2)CC1)C(=O)N[C@@H](CCc1ccccc1)C(=O)N[C@@H]1CCCc2ccccc21 | 
> 10000 nM |  |  |  | CN(C(=O)C1CCN(C(=O)N[C@@H](CC(=O)NCC(C)(C)C)C(=O)N[C@@H](CCc2ccccc2)C(=O)N[C@H]2CCCc3ccccc32)CC1)c1cccnc1 | 
21.6 nM |  |  |  | CN(C(=O)C1CCN(C(=O)N[C@@H](CC(=O)NCC(C)(C)C)C(=O)N[C@@H](CCc2ccccc2)C(=O)N[C@@H]2CCCc3ccccc32)CC1)c1ccccc1Cl | 
41.2 nM |  |  |  | CC(C)(C)CNC(=O)C[C@H](NC(=O)N1CCC(NC(=O)Nc2ccc(Cl)cc2)CC1)C(=O)N[C@@H](CCc1ccccc1)C(=O)N[C@@H]1CCCc2ccccc21 | 
8.59 nM | 54.2 nM | 12 nM | 81.7 nM | CN(C(=O)C1CCN(C(=O)N[C@@H](CC(=O)NCC(C)(C)C)C(=O)N[C@@H](CCc2ccccc2)C(=O)N[C@@H]2CCCc3ccccc32)CC1)c1cccnc1 | 
99.8 nM |  |  |  | C[C@@H](NC(=O)[C@H](CCc1ccccc1)NC(=O)[C@H](CC(=O)NCC(C)(C)C)NC(=O)N1CCC(C(=O)N(C)c2cccnc2)CC1)c1ccccc1 | 
> 10000 nM |  |  |  | C[C@H](NC(=O)[C@H](CCc1ccccc1)NC(=O)[C@H](CC(=O)NCC(C)(C)C)NC(=O)N1CCC(C(=O)N(C)c2cccnc2)CC1)c1ccccc1 | 
9.31 nM | 8.82 nM | 2.74 nM | 20.7 nM | CN(C(=O)C1CCN(C(=O)N[C@@H](CC(=O)NCC(C)(C)C)C(=O)N[C@@H](CCc2ccccc2)C(=O)N[C@@H]2CCCc3ccccc32)CC1)c1ccccc1 | half-life [1]: 2.46 h; inhibition [2]: Active
3.43 nM | 8.36 nM | 1.57 nM | 12.1 nM | CN(C(=O)C1CCN(C(=O)N[C@@H](CC(=O)NCC(C)(C)C)C(=O)N[C@@H](CCc2ccccc2)C(=O)N[C@@H]2CCCc3ccccc32)CC1)c1nccs1 | half-life [1]: 1.4 h; inhibition [2]: Active; inhibition in vivo at 5 mg/kg [3]: 50%
9.26 nM | 84 nM | 51.7 nM | > 100 nM | CN(C(=O)C1CCN(C(=O)N[C@@H](CC(=O)NCC(C)(C)C)C(=O)N[C@@H](CCc2ccccc2)C(=O)N[C@@H]2CCCc3ccccc32)CC1)c1ccncc1 | 
1590 nM |  |  |  | CC(C)(C)CNC(=O)C[C@H](NC(=O)N1CCC(C(=O)Nc2cccnc2)CC1)C(=O)N[C@@H](CCc1ccccc1)C(=O)N1CCc2ccccc2C1 | 
